pIC50: −log10 of the molar value. Structures can show the parent of a compound that is named as a salt.
Molecular target: TrkA (Homo sapiens (Human), UniProt P04629)
Test: TrkA Omnia Assay
Type: biochemical
Details: averaged IC50; 20 nM enzyme, 500 μM ATP, 10 μM peptide substrate
Summary of the method: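 Continuous fluorescent kinase read-out (ex 360 nm, em 485 nm) over 70 min, with initial rates fitted to 4- or 5-parameter logistic curves for IC50. Final conditions: 500 μM ATP, 10 μM Omnia Tyr Peptide #4, 20 nM TrkA, MOPS pH 7.5 buffer with MgCl2 and Triton X-100; enzyme and compound preincubated 10 min at ambient temperature.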

Sequence of TrkA (P04629 33-796): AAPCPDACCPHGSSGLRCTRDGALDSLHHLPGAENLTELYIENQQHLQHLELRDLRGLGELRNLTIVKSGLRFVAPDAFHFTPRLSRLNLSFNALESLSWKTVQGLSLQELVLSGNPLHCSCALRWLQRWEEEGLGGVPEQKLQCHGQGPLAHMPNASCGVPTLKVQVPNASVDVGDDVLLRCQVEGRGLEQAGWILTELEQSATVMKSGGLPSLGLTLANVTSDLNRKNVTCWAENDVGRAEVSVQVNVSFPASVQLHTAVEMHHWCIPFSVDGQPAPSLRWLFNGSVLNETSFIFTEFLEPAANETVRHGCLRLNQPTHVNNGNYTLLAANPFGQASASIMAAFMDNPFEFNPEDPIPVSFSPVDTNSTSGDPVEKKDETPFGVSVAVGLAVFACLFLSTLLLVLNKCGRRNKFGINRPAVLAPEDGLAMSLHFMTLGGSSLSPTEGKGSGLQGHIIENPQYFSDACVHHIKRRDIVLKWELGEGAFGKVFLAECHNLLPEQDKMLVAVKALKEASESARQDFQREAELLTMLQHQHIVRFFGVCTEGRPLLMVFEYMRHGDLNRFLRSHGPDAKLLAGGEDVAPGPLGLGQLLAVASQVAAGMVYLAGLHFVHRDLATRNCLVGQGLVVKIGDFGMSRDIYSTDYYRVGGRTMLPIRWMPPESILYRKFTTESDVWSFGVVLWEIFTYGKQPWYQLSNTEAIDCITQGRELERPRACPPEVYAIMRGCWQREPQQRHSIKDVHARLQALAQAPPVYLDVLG

| pIC50 | Compound |
| --- | --- |
| > 7.00 | COCCN1C[C@@H](NC(=O)Nc2c(C)c(-c3ccn(C)c(=O)c3)nn2-c2ccccc2)[C@H](c2ccc(F)c(Cl)c2)C1 (relative stereo) [Example 304, 1-(trans-4-(3-chloro-4-fluorophenyl)-1-(2-methoxyethyl)pyrrolidin-3-yl)-3-(4-methyl-3-(1-methyl-2-oxo-1,2-dihydropyridin-4-yl)-1-phenyl-1H-pyrazol-5-yl)urea] |
| > 7.00 | COCCN1C[C@@H](NC(=O)Nc2cc(-c3ccccc3)nn2-c2ccccc2)[C@H](c2ccccc2)C1 (relative stereo) [Example 10, 1-(1,3-diphenyl-1H-pyrazol-5-yl)-3-(trans-1-(2-methoxyethyl)-4-phenylpyrrolidin-3-yl)urea] |
| > 7.00 | COCCN1C[C@@H](NC(=O)Nc2c(Cl)c(OCC(C)(C)O)nn2-c2ccccc2)[C@H](c2ccc(F)cc2)C1 [Example 371, 1-(4-chloro-3-(2-hydroxy-2-methylpropoxy)-1-phenyl-1H-pyrazol-5-yl)-3-((3S,4R)-4-(4-fluorophenyl)-1-(2-methoxyethyl)pyrrolidin-3-yl)urea] |
| > 7.00 | COCCN1C[C@@H](NC(=O)Nc2c(C)c(CO)nn2-c2ccccc2)[C@H](c2ccc(F)c(F)c2)C1 [Example 132, 1-((3S,4R)-4-(3,4-difluorophenyl)-1-(2-methoxyethyl)pyrrolidin-3-yl)-3-(3-(hydroxy-methyl)-4-methyl-1-phenyl-1H-pyrazol-5-yl)urea] |
| 5.00 to 6.00 | COCCN1CC(c2sc(C)nc2C)[C@H](NC(=O)Nc2c3c(nn2-c2ccccc2)CCC3)C1 (stereo partly drawn) [Example 45, 1-((3,4-trans)-4-(2,4-dimethylthiazol-5-yl)-1-(2-methoxyethyl)pyrrolidin-3-yl)-3-(2-phenyl-2,4,5,6-tetrahydrocyclopenta[c]pyrazol-3-yl)urea] |
| 6.00 to 7.00 | O=C(Nc1c2c(nn1-c1ccccc1)CCC2)NC1CN(CCCC(F)(F)F)C[C@H]1c1ccccc1 (stereo partly drawn) [Example 185, 1-((3,4-trans)-4-phenyl-1-(4,4,4-trifluorobutyl)pyrrolidin-3-yl)-3-(2-phenyl-2,4,5,6-tetrahydrocyclopenta[c]pyrazol-3-yl)urea] |
| > 7.00 | CCOc1nn(-c2ccccc2)c(NC(=O)N[C@@H]2CN(CC(=O)OC)C[C@H]2c2ccc(F)c(F)c2)c1C [Example 468, methyl 2-((3R,4S)-3-(3,4-difluorophenyl)-4-(3-(3-ethoxy-4-methyl-1-phenyl-1H-pyrazol-5-yl)ureido)pyrrolidin-1-yl)acetate] |
| > 7.00 | COCCN1C[C@@H](NC(=O)Nc2c(C)c(-c3nc(C(F)(F)F)no3)nn2-c2ccccc2)[C@H](c2ccc(F)cc2)C1 [Example 300, 1-((3S,4R)-4-(4-fluorophenyl)-1-(2-methoxyethyl)pyrrolidin-3-yl)-3-(4-methyl-1-phenyl-3-(3-(trifluoromethyl)-1,2,4-oxadiazol-5-yl)-1H-pyrazol-5-yl)urea] |
| 6.00 to 7.00 | O=C(Nc1c2c(nn1-c1ccccc1)CCC2)N[C@@H]1CN(CCC(F)(F)C(F)(F)F)C[C@H]1c1ccccc1 [Example 192, 1-((trans)-1-(3,3,4,4,4-pentafluorobutyl)-4-phenlpyrrrolidin-3-yl)-3-(2-phenyl-2,4,5,6-tetrahydrocyclopenta[c]pyrazol-3-yl)urea] |
| > 7.00 | CCOc1nn(-c2ccccc2)c(NC(=O)N[C@@H]2CN(CCOC)C[C@H]2c2ccccc2)c1C [Example 139] |

The remaining lines, values behind:

| Compound | pIC50 |
| --- | --- |
| COCCN1C[C@@H](NC(=O)Nc2c3c(nn2-c2ccccc2)COC3)[C@H](c2ccc(F)c(F)c2)C1 [Example 90, 1-((3S,4R)-4-(3,4-difluoro-phenyl)-1-(2-methoxyethyl)pyrrolidin-3-yl)-3-(2-phenyl-4,6-dihydro-2H-furo[3,4-c]pyrazol-3-yl) urea] | > 7.00 |
| CCOc1nn(C)c(NC(=O)N[C@@H]2CN(CCOC)C[C@H]2c2ccc(F)c(F)c2)c1-c1ccccc1 [Example 157, 1-((3S,4R)-4-(3,4-difluorophenyl)-1-(2-methoxyethyl)pyrrolidin-3-yl)-3-(3-ethoxy-1-methyl-4-phenyl-1H-pyrazol-5-yl)urea] | > 7.00 |
| COCCN1C[C@@H](NC(=O)Nc2c3c(nn2-c2ccccc2)C(C)(C)CCC3)[C@H](c2ccccc2)C1 (relative stereo) [Example 37, 1-(7,7-dimethyl-2-phenyl-4,5,6,7-tetrahydro-2H-indazol-3-yl)-3-(trans-1-(2-methoxyethyl)-4-phenylpyrrolidin-3-yl)urea] | > 7.00 |
| COCCN1C[C@@H](NC(=O)Nc2c3c(nn2-c2ccccc2)CCC3)[C@H](c2ccccc2)C1 (relative stereo) [Example 14, 1-(trans-1-(2-methoxyethyl)-4-phenylpyrrolidin-3-yl)-3-(2-phenyl-2,4,5,6-tetrahydrocyclopenta[c]pyrazol-3-yl)urea] | > 7.00 |
| COCCc1nn(-c2ccccc2)c(NC(=O)N[C@@H]2CN(CCOC)C[C@H]2c2ccc(F)c(F)c2)c1C [Example 134, 1-((3S,4R)-4-(3,4-difluorophenyl)-1-(2-methoxyethyl)pyrrolidin-3-yl)-3-(3-(2-methoxy-ethyl)-4-methyl-1-phenyl-1H-pyrazol-5-yl)urea] | > 7.00 |
| COCCN1C[C@@H](NC(=O)Nc2c(C)c(-c3cnn(C)c3)nn2-c2ccccc2)[C@H](c2ccc(Cl)c(F)c2)C1 (relative stereo) [Example 294, 1-(trans-4-(4-chloro-3-fluorophenyl)-1-(2-methoxyethyl)pyrrolidin-3-yl)-3-(1′,4-dimethyl-1-phenyl-1H,1′H-[3,4′-bipyrazol]-5-yl)urea] | > 7.00 |
| COCCN1C[C@@H](NC(=O)Nc2c(C)c(C)nn2-c2ccccc2)[C@H](c2cc(F)cc(F)c2)C1 [Example 83, 1-((3S,4R)-4-(3,5-difluoro-phenyl)-1-(2-methoxyethyl)pyrrolidin-3-yl)-3-(3,4-dimethyl-1-phenyl-1H-pyrazol-5-yl)urea] | > 7.00 |
| COCCN1C[C@@H](NC(=O)Nc2c(C)c(OCC3(C)COC3)nn2-c2ccccc2)[C@H](c2ccc(F)c(F)c2)C1 [Example 75, 1-((3S,4R)-4-(3,4-difluorophenyl)-1-(2-methoxyethyl)pyrrolidin-3-yl)-3-(4-methyl-3-((3-methyloxetan-3-yl)methoxy)-1-phenyl-1H-pyrazol-5-yl)urea] | > 7.00 |
| COCCN1C[C@@H](NC(=O)Nc2c(Cl)c(C3CCNCC3)nn2-c2ccccc2)[C@H](c2ccc(F)c(F)c2)C1 [Example 581, 1-(4-chloro-1-phenyl-3-(piperidin-4-yl)-1H-pyrazol-5-yl)-3-((3S,4R)-4-(3,4-difluorophenyl)-1-(2-methoxyethyl)pyrrolidin-3-yl)urea dihydrochloride] | > 7.00 |
| COCCN1C[C@@H](NC(=O)Nc2cc(-c3ccc(F)cc3)nn2C)[C@H](c2cc(F)ccc2F)C1 [Example 120, 1-((3S,4R)-4-(2,5-difluorophenyl)-1-(2-methoxyethyl)pyrrolidin-3-yl)-3-(3-(4-fluoro-phenyl)-1-methyl-1H-pyrazol-5-yl)urea] | > 7.00 |
| CC[C@@H](O)COc1nn(-c2ccccc2)c(NC(=O)N[C@@H]2CN(CCOC)C[C@H]2c2ccc(F)c(F)c2)c1C [Example 380, 1-((3S,4R)-4-(3,4-difluorophenyl)-1-(2-methoxyethyl)pyrrolidin-3-yl)-3-(3-((R)-2-hydroxybutoxy)-4-methyl-1-phenyl-1H-pyrazol-5-yl)urea] | > 7.00 |
